Measurements from US8507527B2, “Method for stabilizing anti-dementia drug” (EISAI R & D Management Co., Ltd., priority 2004, dated 2013).

Experiment: pH of aqueous solutions or suspensions of additives, polymers and donepezil hydrochloride
Format: physicochemical
Details: 2.5% aqueous solution or suspension

| Compound | pH |
| --- | --- |
| OC[C@H]1O[C@@H](O[C@H]2[C@H](O)[C@@H](O)C(O)O[C@@H]2CO)[C@H](O)[C@@H](O)[C@H]1O (some centres unmarked) [FlowLac100, LACTOSE] | 5.5 |

Same assay, conditions: additive of the example alone, dissolved or suspended in purified water at 2.5%

| Compound | pH OF ADDITIVES (2.5% AQUEOUS SOLUTIONS OR SUSPENSIONS) |
| --- | --- |
| CSCC[C@H](N)C(=O)O [METHIONINE, methionine] | 5.9 |
| N[C@@H](CS)C(=O)O [CYSTEINE, cysteine] | 5.1 |
| NCC(=O)O [GLYCINE, glycine] | 6.2 |
| O=C([O-])CC(O)(CC(=O)[O-])C(=O)[O-].[Na+].[Na+].[Na+] [SODIUM CITRATE, sodium citrate] | 8.3 |
| O=C(O)CC(O)(CC(=O)O)C(=O)O [CITRIC ACID, citric acid] | 2.0 |
| O=C([O-])CC(O)(CC(=O)[O-])C(=O)O.[Na+].[Na+] [DISODIUM CITRATE, disodium citrate] | 5.2 |
| O=C([O-])CN(CCN(CC(=O)[O-])CC(=O)O)CC(=O)O.[Na+].[Na+] [DISODIUM EDETATE, disodium edetate] | 4.5 |
| sodium dihydrogen citrate [SODIUM […]] | 3.7 |
| Cl.N[C@@H](CS)C(=O)O [CYSTEINE HYDROCHLORIDE, cysteine hydrochloride] | 1.5 |
| O=C1O[C@H]([C@@H](O)CO)C(O)=C1O [ASCORBIC ACID, ascorbic acid] | 2.6 |
| N[C@@H](CC(=O)[O-])C(=O)[O-].[Na+].[Na+] [SODIUM ASPARTATE, sodium aspartate] | 6.8 |
| N[C@@H](CC(=O)O)C(=O)O [ASPARTIC ACID, aspartic acid] | 3.0 |
| O=C1O[C@H]([C@@H](O)CO)C([O-])=C1O.[Na+] [SODIUM ASCORBATE, sodium ascorbate] | 7.5 |
